From US4887995A, “Method of treating sickle cell anemia” (University of Pittsburgh, priority 1985, dated 1989)

How the values were obtained:
HbS = assay: chromatographic separation for covalent binding to HbS
erythrocyte membranes = assay: transport across erythrocyte membranes; assay type: in vitro ADME
sickle hemoglobin (HbS) = assay: solubility assay: ability of a compound to increase solubility of sickle hemoglobin; assay type: biochemical; settings: low concentrations (5 mM.); the higher the ratio the higher the activity; compared with DiClBz and p-BrBz
From the text: In comparative tests which we reported in J. of Med. Chem., 1984, 27, 103-105, which is incorporated herein by reference, ethacrynic acid was compared with active agents (1) [(3,4-dichlorobenzyl)oxy]acetic acid (DiClBz2) and (2) [(p-bromobenzyl)oxy]acetic acid (p-BrBz). The solubility assay measures the ability of a compound to increase solubility of sickle hemoglobin (HbS). […] The higher the ratio the higher the activity of the compound.

C=C(CC)C(=O)c1ccc(OCC(=O)O)c(Cl)c1Cl [ethacrynic acid]
covalent binding between HbS and compound (HbS): desired tight covalent binding between the HbS and ethacrynic acid had occurred
ability to cross the red blood cell membrane and react with hemoglobin (erythrocyte membranes): confirmed the ability of ethacrynic acid to cross the red blood cell membrane and react with hemoglobin
solubility ratio (sickle hemoglobin (HbS)): higher solubility ratio than DiClBz and p-BrBz
